The record followed here is patent publication US11161818B2, “Quinolone derivatives, preparation methods and application thereof” (Hangzhou Normal University, priority 2019, dated 2021).

Counter-ions that a name gives are not always drawn.

The IC50 is the concentration at which inhibition is half-maximal. The term zone of inhibition denotes the extent of the growth-free halo in a diffusion test. The low end stands for a weaker effect on the plate, the high end for a stronger effect on the plate.

Experiment [1] deals with liver cancer cells (HepG2). Kind of experiment: Anti-tumor activity test, MTT method. Type of experiment: cell-based, human. The note with it: concentration 0.5 mg/ml (DMSO as solvent), 44 + 4 hours culture. Here is the method: (§1) For the anti-tumor activity test of these compounds, three kinds of common tumor cells are taken as research subjects: non-small cell lung cancer cells (HCC827), lung cancer cells (A549) and liver cancer cells (HepG2). Under the action of the new quinolone derivatives, the growth of the cells is observed, and the proliferation of tumor cells is measured by MTT method. The specific operation is as follows: the tumor cells are inoculated into 96-well culture plate in a particular amount of cells, with a cell density of 2×10^4 cells/ml; after overnight in the incubator with a concentration of 5% CO2 at 37° C., the screened samples are added (reference can be made to Table 1 for sample concentration; 10 μL/well of corresponding concentration of drugs are added to the dosing group, while 10 μL/well of PBS are added to the control group). After 44 hours of culture, 10 μL/well of MTT are added to continue the culture for 4 hours, which is dissolved with DMSO, shaken, and detected with a 570 nm enzyme-labeled instrument.

The subject of experiment [2] is MRSA (methicillin-resistant Staphylococcus aureus). Kind of experiment: Bactericidal activity test, filter paper inhibition zone. Particulars: filter paper diameter 6 mm, 37° C., 24 hours; for MRSA inhibition zone: sample concentration 10 mg/mL. In kind it is cell-based. Here is the method: (§2) In order to determine the practicability of the compounds synthesized in this patent, some of the compounds are selected as representatives, and the bactericidal activity is determined by conventional methods. The specific operation procedures are as follows:
(§3) In a super clean bench, the preserved strains are transferred to a slant tube, cultured in an incubator at 37° C. for 24 hours, and then taken out and preserved at low temperature for antibacterial experiments. The well-grown colonies are scraped and transferred into a liquid medium with the inoculation ring, shaken to give a uniform mixture, and cultured in the incubator at 37° C. for 24 hours. The culture medium is poured into plates, about 15 ml for each plate, which are placed horizontally, and after solidification, placed upside down into the incubator at 37° C.; after two days, it is observed whether there is colony growth. If not, it can be used for the next experiment, otherwise, the plate needs to be poured again. 0.5 ml of bacterial suspension is pipetted into the plate, which is left to stand still for about 5 minutes, and then spread evenly with a coating rod; two duplicate plates are set for each kind of bacteria. In the super clean bench, the plates are divided equally and parallel groups are set. Each piece of filter paper (6 mm in diameter) is a paste. The filter paper is picked up with tweezers, dipped into a sample, taken out, placed at a given position of the plate, and gently pressed to make the filter paper firmly adhered thereto. The plate is placed (upside down) in the incubator for culture; the temperature is set at 37° C.; and after 24 hours culture, the plate is observed and the results are recorded.

In experiment [3] the test system is E. coli. The experiment is described as above. The note with it: filter paper diameter 6 mm, 37° C., 24 hours; for E. coli activity inhibition zone: sample concentration 10 mg/mL. Type of experiment: cell-based. Here is the method:
as §2, §3

For experiment [4], the system named is B. subtilis. Described as above. Particulars: filter paper diameter 6 mm, 37° C., 24 hours; for B. subtilis inhibition zone: sample concentration 10 mg/mL. In kind it is cell-based, Bacillus subtilis. Here is the method: as §2, §3
Experiment [5] relates to S. aureus. The description is as above. The note with it: filter paper diameter 6 mm, 37° C., 24 hours; for S. aureus inhibition zone: sample concentration 10 mg/mL. In kind it is cell-based, Staphylococcus aureus. Here is the method:
as §2, §3

Experiment [6] relates to lung cancer cells (A549). Kind of experiment: Anti-tumor activity test, MTT method. Type of experiment: cell-based. Particulars: concentration 0.5 mg/ml (DMSO as solvent), 44 + 4 hours culture. How it is done:
as §1
(In general: Tetrazolium dyes change colour on reduction, which living cells bring about.)

Experiment [7] concerns non-small cell lung cancer cells (HCC827). Kind of experiment: Anti-tumor activity test, MTT method. Type of experiment: cell-based. The note with it: concentration 0.5 mg/ml (DMSO as solvent), 44 + 4 hours culture. How it is done: as §1

Take `CCOC(=O)c1cn(-c2ccc(Oc3ccc(Cl)cc3)cc2)c2cc(Cl)c(F)cc2c1=O` [Compound I-3, ethyl 7-chloro-1-(4-(4-chlorophenoxy)phenyl)-6-fluoro-4-oxy-1,4-dihydroquinoline-3-carboxylate]: the IC50 in experiment [1] is 7.5 µM; in experiment [6], above 10 µM; in experiment [7], 4.5 µM. Besides, in experiment [2], the MRSA inhibition zone is reported as 8 mm. The “E. coli activity inhibition zone” value in experiment [3] was 24 mm. Moreover, the “B. subtilis inhibition zone” value in experiment [4] is reported as 18 mm. The “S. aureus inhibition zone” value in experiment [5] is recorded as 20 mm.
In experiment [2], `CCOC(=O)c1cn(-c2ccc(Oc3ccccc3)cc2)c2cc(Cl)c(F)cc2c1=O` [Compound I-4, ethyl 7-chloro-6-fluoro-4-oxy-1-(4-phenoxyphenyl)-1,4-dihydroquinoline-3-carboxylate] registered an MRSA inhibition zone of 9 mm. In addition, the “E. coli activity inhibition zone” value in experiment [3] is 27 mm. Also, the “B. subtilis inhibition zone” value in experiment [4] is listed as 23 mm. In addition, the “S. aureus inhibition zone” value in experiment [5] is given as 19 mm.
For `CCOC(=O)c1cn(-c2ccc(Oc3ccc(F)cc3)cc2)c2cc(Cl)c(F)cc2c1=O` [Compound I-7, ethyl 7-chloro-6-fluoro-1-(4-(4-fluorophenoxy)phenyl)-4-oxy-1,4-dihydroquinoline-3-carboxylate], in that order: 7 mm, 17 mm, 13 mm and 15 mm.
For `CCOC(=O)c1cn(-c2ccc(Oc3ccc(C)cc3)cc2)c2cc(Cl)c(F)cc2c1=O` [Compound I-8, ethyl 7-chloro-6-fluoro-1-(4-(4-toluoxy)phenyl)-4-oxy-1,4-dihydroquinoline-3-carboxylate], in that order: 10 mm, 12 mm, 12 mm and 13 mm.
The matching figures for `CCOC(=O)c1cn(-c2ccc(Oc3ccc(C(C)(C)C)cc3)cc2)c2cc(Cl)c(F)cc2c1=O` [Compound I-10, ethyl 7-chloro-6-fluoro-1-(4-(4-tert-butylphenoxy)phenyl)-4-oxy-1,4-dihydroquinoline-3-carboxylate]: 14 mm, 24 mm, 20 mm and 20 mm.
In experiment [2], `CCOC(=O)c1cn(-c2ccc(Oc3ccc(OC)cc3)cc2)c2cc(Cl)c(F)cc2c1=O` [Compound I-11, ethyl 7-chloro-6-fluoro-1-(4-(4-methoxyphenoxy)phenyl)-4-oxy-1,4-dihydroquinoline-3-carboxylate] had an MRSA inhibition zone of 7 mm. Besides, the “E. coli activity inhibition zone” value in experiment [3] was found to be 22 mm. The “B. subtilis inhibition zone” value in experiment [4] is listed as 13 mm. The “S. aureus inhibition zone” value in experiment [5] was 11 mm.
`CCOC(=O)c1cn(-c2ccc(Oc3ccc(OC(F)(F)F)cc3)cc2)c2cc(Cl)c(F)cc2c1=O` [Compound I-12, ethyl 7-chloro-6-fluoro-1-(4-(4-trifluoromethoxyphenoxy)phenyl)-4-oxy-1,4-dihydroquinoline-3-carboxylate]: the IC50 is 8.5 µM in experiment [1], above 10 µM in experiment [6] and above 10 µM in experiment [7]. Besides, the MRSA inhibition zone in experiment [2] was determined as 8 mm. Further, in experiment [3], the “E. coli activity inhibition zone” value was determined as 28 mm. Besides, in experiment [4], the “B. subtilis inhibition zone” value is recorded as 8 mm. The “S. aureus inhibition zone” value in experiment [5] was 24 mm.
Consider `CCOC(=O)c1cn(-c2ccc(Oc3ccc(C(F)(F)F)cc3)cc2)c2cc(Cl)c(F)cc2c1=O` [Compound I-14, ethyl 7-chloro-6-fluoro-1-(4-(4-trifluoromethylphenoxy)phenyl)-4-oxy-1,4-dihydroquinoline-3-carboxylate], for which, in experiment [2], the MRSA inhibition zone amounted to 12 mm. The “E. coli activity inhibition zone” value in experiment [3] is listed as 27 mm. Also, in experiment [4], the “B. subtilis inhibition zone” value is 15 mm. For the same molecule, the “S. aureus inhibition zone” value in experiment [5] is on record as 20 mm.
The molecule `CCOC(=O)c1cn(-c2ccc(Oc3ccc(Cl)c(Cl)c3)cc2)c2cc(Cl)c(F)cc2c1=O` [Compound I-15, ethyl 7-chloro-1-(4-(3,4-dichlorophenoxy)phenyl)-6-fluoro-4-oxy-1,4-dihydroquinoline-3-carboxylate] yielded an MRSA inhibition zone in experiment [2] of 9 mm. The “E. coli activity inhibition zone” value in experiment [3] was determined as 21 mm. In experiment [4], the “B. subtilis inhibition zone” value was 18 mm. Besides, the “S. aureus inhibition zone” value in experiment [5] is 20 mm.
In experiment [2], `CCOC(=O)c1cn(-c2ccc(Oc3ccc(C)c(C)c3)cc2)c2cc(Cl)c(F)cc2c1=O` [Compound I-17, ethyl 7-chloro-1-(4-(3,4-dimethylphenoxyl)phenyl)-6-fluoro-4-oxy-1,4-dihydroquinoline-3-carboxylate] showed an MRSA inhibition zone of 7 mm. In experiment [3], the “E. coli activity inhibition zone” value is on record as 29 mm. Moreover, the “B. subtilis inhibition zone” value in experiment [4] is 11 mm. Further, the “S. aureus inhibition zone” value in experiment [5] is listed as 20 mm.
`CCOC(=O)c1cn(Cc2ccc(Oc3ccc(Cl)cc3)cc2)c2cc(Cl)c(F)cc2c1=O` [Compound I-20, ethyl 7-chloro-1-(4-(4-chlorophenoxy)benzyl)-6-fluoro-4-oxy-1,4-dihydroquinoline-3-carboxylate]: the MRSA inhibition zone in experiment [2] came to 10 mm. Further, the “E. coli activity inhibition zone” value in experiment [3] is 24 mm. In experiment [4], the “B. subtilis inhibition zone” value worked out at 12 mm. Moreover, the “S. aureus inhibition zone” value in experiment [5] amounted to 21 mm.
For `CCOC(=O)c1cn(Cc2ccc(Oc3ccccc3C)cc2)c2cc(Cl)c(F)cc2c1=O` [Compound I-22, ethyl 7-chloro-1-(4-(2-methylphenoxy)benzyl)-6-fluoro-4-oxy-1,4-dihydroquinoline-3-carboxylate], in that order: 14 mm, 30 mm, 18 mm and 23 mm.
In the case of `O=C(O)c1cn(-c2ccc(Oc3ccc(Cl)cc3)cc2)c2cc(Cl)c(F)cc2c1=O` [Compound I-26, 7-chloro-1-(4-(4-chlorophenoxy)phenyl)-6-fluoro-4-oxy-1,4-dihydroquinoline-3-carboxylic acid], the values for the half-maximal inhibitory concentration (IC50) in experiment [1], in experiment [6] and in experiment [7] were 5 µM, above 10 µM and 5 µM, respectively. The same molecule registered an MRSA inhibition zone in experiment [2] of 15 mm. Also, the “E. coli activity inhibition zone” value in experiment [3] was 29 mm. In addition, the “B. subtilis inhibition zone” value in experiment [4] worked out at 24 mm. In experiment [5], the “S. aureus inhibition zone” value stood at 29 mm.
Consider `COc1ccc(Oc2ccc(-n3cc(C(=O)O)c(=O)c4cc(F)c(Cl)cc43)cc2)cc1` [Compound I-28, 7-chloro-1-(4-(4-methoxyphenoxy)phenyl)-6-fluoro-4-oxy-1,4-dihydroquinoline-3-carboxylic acid], for which the MRSA inhibition zone in experiment [2] is 11 mm. The “E. coli activity inhibition zone” value in experiment [3] is 25 mm. The “B. subtilis inhibition zone” value in experiment [4] is given as 28 mm. Moreover, the “S. aureus inhibition zone” value in experiment [5] is recorded as 29 mm.
`C[C@H]1COc2c(N3CCN(C)CC3)c(F)cc3c(=O)c(C(=O)O)cn1c23` [Control group, levofloxacin hydrochloride, reference compound]: the zone of inhibition at 5000 µg/mL in experiment [2] (Staphylococcus aureus, MRSA, control concentration 5 mg/mL) was determined as 12 mm; in experiment [3] (Escherichia coli, control concentration 5 mg/mL), 25 mm; in experiment [4] (Bacillus subtilis, control concentration 5 mg/mL), 22 mm; in experiment [5] (Staphylococcus aureus, control concentration 5 mg/mL), 26 mm.
In the case of `CC(=O)O[C@H]1C(=O)[C@@]2(C)[C@H]([C@H](OC(=O)c3ccccc3)[C@]3(O)C[C@H](OC(=O)[C@H](O)[C@@H](NC(=O)c4ccccc4)c4ccccc4)C(C)=C1C3(C)C)[C@]1(OC(C)=O)CO[C@@H]1C[C@@H]2O` [Paclitaxel, reference compound], the values for the IC50 in experiment [1] (Homo sapiens), in experiment [6] (Homo sapiens) and in experiment [7] (Homo sapiens) were 1.5 µM, 3.5 µM and 2.5 µM, respectively.
